In patent US20150010928A1, “MEANS AND METHODS FOR ASSESSING AN ENDOCRINE DISEASE OR DISORDER” (priority 2012, published 2015):
Where a name gives a salt, the structure may show the parent alone. Marks after values point to notes of the source that are not given here.

Tested on: male rats
Assay: Plasma metabolite profiling (GC-MS, LC-MS, SPE-LC-MS) in male rats dosed once daily over 28 days (OECD 407)
Format: in vivo, rat
Procedure: Each dose group in the studies consisted of five rats per sex. Additional groups of each 5 male and female animals served as controls. […] All animals of the animal population were kept under the same constant temperature (20-24±3° C.) and the same constant humidity (30-70%). The animals of the animal population were fed ad libitum. The food to be used was essentially free of chemical or microbial contaminants. Drinking water was also offered ad libitum. Accordingly, the water was free of chemical and microbial contaminants as laid down in the European Drinking Water Directive 98/83/EG. The illumination period was 12 hours light followed by 12 hours darkness (12 hours light, from 6:00 to 18:00, and 12 hours darkness, from 18:00 to 6:00). […] The test substances (compounds) in the Tables 1 to 17 below were dosed and administered as described in the Table 18.
In the morning of day 7, 14, and 28, blood was taken from the retroorbital venous plexus from fasted anaesthetized animals. From each animal, 1 ml of blood was collected with EDTA as anticoagulant. The samples were centrifuged for generation of plasma. All plasma samples were covered with a N2 atmosphere and then stored at −80° C. until analysis.
For mass spectrometry-based metabolite profiling analyses plasma samples were extracted and a polar and a non-polar (lipid) fraction was obtained. For GC-MS analysis, the non-polar fraction was treated with methanol under acidic conditions to yield the fatty acid methyl esters. Both fractions were further derivatised with O-methyl-hydroxyamine hydrochloride and pyridine to convert Oxogroups to O-methyloximes and subsequently with a silylating agent before analysis. In LC-MS analysis, both fractions were reconstituted in appropriate solvent mixtures. HPLC was performed by gradient elution on reversed phase separation columns. Mass spectrometric detection which allows target and high sensitivity MRM (Multiple Reaction Monitoring) profiling in parallel to a full screen analysis was applied as described in WO2003073464.
Steroids and their metabolites were measured by online SPE-LC-MS (Solid phase extraction-LC-MS).
Following comprehensive analytical validation steps, the data for each analyte were normalized against data from pool samples. These samples were run in parallel through the whole process to account for process variability. The significance of treatment group values specific for sex, treatmentduration and metabolite was determined by comparing means of the treated groups to the means of the respective untreated control groups using WELCH-test and quantified with treatment ratios versus control and p-values.
The identification of the most important biomarkers per toxicity pattern was done by a ranking of the analytes in the tables below. Therefore the metabolic changes in reference treatments of a given pattern (shown in the table) were compared with changes of the same metabolite in other unrelated treatments. […] The maximum absolute value of the respective TVALUE was taken to indicate the most important metabolite for the pattern.

SMILES: CNCCC(Oc1ccc(C(F)(F)F)cc1)c1ccccc1 (stereo not drawn) [Fluoxetine hydrochloride]
- 3-O-Methylsphingosine (d18:1) (m7, high dose, Table 10a): 1.33
- 5-O-Methylsphingosine (d18:1) (m7, high dose, Table 10a): 1.43
- Cysteine (m7, high dose, Table 10a): 1.81 *
- Lignoceric acid (C24:0) (m7, high dose, Table 10a): 1.33
- Nervonic acid (C24:cis[15]1) (m7, high dose, Table 10a): 1.37
- Oleic acid (C18:cis[9]1) (m7, high dose, Table 10a): 0.83
- Stearic acid (C18:0) (m7, high dose, Table 10a): 1.21
- alpha-Tocopherol (m7, high dose, Table 10a): 1.37
- threo-Sphingosine (d18:1) (m7, high dose, Table 10a): 1.2
- Oleic acid (C18:cis[9]1) (m7, high dose, Table 10b): 0.83^
- Phosphatidylcholine (C16:0, C16:0) (m7, high dose, Table 10b): 0.99^
- Thyroxine (T4) (m7, high dose, Table 10b): 0.42 *
- trans-4-Hydroxyproline (m7, high dose, Table 10b): 0.87 *
- 3-O-Methylsphingosine (d18:1) (m14, high dose, Table 10a): 1.43^
- 5-O-Methylsphingosine (d18:1) (m14, high dose, Table 10a): 1.67 *
- Cysteine (m14, high dose, Table 10a): 2.03 *
- Oleic acid (C18:cis[9]1) (m14, high dose, Table 10a): 0.88^
- Stearic acid (C18:0) (m14, high dose, Table 10a): 1.2
- alpha-Tocopherol (m14, high dose, Table 10a): 1.64 *
- threo-Sphingosine (d18:1) (m14, high dose, Table 10a): 1.45 *
- Oleic acid (C18:cis[9]1) (m14, high dose, Table 10b): 0.88 *
- Thyroxine (T4) (m14, high dose, Table 10b): 0.59^
- trans-4-Hydroxyproline (m14, high dose, Table 10b): 0.83 *
- 3-O-Methylsphingosine (d18:1) (m28, high dose, Table 10a): 2.23 *
- 5-O-Methylsphingosine (d18:1) (m28, high dose, Table 10a): 2.39 *
- Lignoceric acid (C24:0) (m28, high dose, Table 10a): 1.79 *
- Nervonic acid (C24:cis[15]1) (m28, high dose, Table 10a): 1.57 *
- Oleic acid (C18:cis[9]1) (m28, high dose, Table 10a): 0.98^
- Stearic acid (C18:0) (m28, high dose, Table 10a): 1.42 *
- alpha-Tocopherol (m28, high dose, Table 10a): 1.74 *
- threo-Sphingosine (d18:1) (m28, high dose, Table 10a): 2.2 *
- Oleic acid (C18:cis[9]1) (m28, high dose, Table 10b): 0.98
- Phosphatidylcholine (C16:0, C16:0) (m28, high dose, Table 10b): 0.99
- Thyroxine (T4) (m28, high dose, Table 10b): 0.72
- trans-4-Hydroxyproline (m28, high dose, Table 10b): 0.72 *
- Cysteine (rat, in vivo): 1.37 *
- Lignoceric acid (C24:0) (rat, in vivo): 1.35^
- Nervonic acid (C24:cis[15]1) (rat, in vivo): 1.68^
- Phosphatidylcholine (C16:0, C16:0) (rat, in vivo): 1.03^
